# US8399206B2, “Methods for diagnosis, prognosis and methods of treatment” (Nodality, Inc., priority 2008, dated 2013)
# B1: CD40L (protein, UniProt P29965 113-261, looked up)
# CD40 ligand, soluble form: MQKGDQNPQIAAHVISEASSKTTSVLQWAEKGYYTMSNNLVTLENGKQLTVKRQGLYYIYAQVTFCSNREASSQAPFIASLCLKSPGRFERILLRAANTHSSAKPCGQQSIHLGGVFELQPGASVFVNVTDPSQVSHGTGFTSFGLLKL
# B2: IFNg: interferon gamma, cytokine modulator (protein, UniProt P01579 24-161, looked up)
# Interferon gamma: QDPYVKEAENLKKYFNAGHSDVADNGTLFLGILKNWKEESDRKIMQSQIVSFYFKLFKNFKDDQSIQKSVETIKEDMNVKFFNSNKKKRDDFEKLTNYSVTDLNVQRKAIHELIQVMAELSPAAKTGKRKRSQMLFRG
# B3: M-CSF (protein, UniProt P09603 33-554, looked up)
# Macrophage colony-stimulating …: EEVSEYCSHMIGSGHLQSLQRLIDSQMETSCQITFEFVDQEQLKDPVCYLKKAFLLVQDIMEDTMRFRDNTPNAIAIVQLQELSLRLKSCFTKDYEEHDKACVRTFYETPLQLLEKVKNVFNETKNLLDKDWNIFSKNCNNSFAECSSQDVVTKPDCNCLYPKAIPSSDPASVSPHQPLAPSMAPVAGLTWEDSEGTEGSSLLPGEQPLHTVDPGSAKQRPPRSTCQSFEPPETPVVKDSTIGGSPQPRPSVGAFNPGMEDILDSAMGTNWVPEEASGEASEIPVPQGTELSPSRPGGGSMQTEPARPSNFLSASSPLPASAKGQQPADVTGTALPRVGPVRPTGQDWNHTPQKTDHPSALLRDPPEPGSPRISSLRPQGLSNPSTLSAQPQLSRSHSSGSVLPLGELEGRRSTRDRRSPAEPEGGPASEGAARPLPRFNSVPLTDTGHERQSEGSFSPQLQESVFHLLVPSVILVLLAVGGLLFYRWRRRSHQEPQRADSPLEQPEGSPLTQDDRQVELPV
# Key:
# [1] = system: AML blasts; experiment: SCNP / phospho-flow modulated signaling assay, AML study No. 1 (PBMC at diagnosis, CR vs NR); format: cell-based, human
# Source text: The present illustrative example represents how to analyze cells in one embodiment of the present invention. There are several steps in the process, such as the stimulation step, the staining step and the flow cytometry step. The stimulation step of the phospho-flow procedure can start with vials of frozen cells and end with cells fixed and permeabilized in methanol. Then the cells can be stained with an antibody directed to a particular protein of interest and then analyzed using a flow cytometer.
# Frozen cells are thawed in a 37° C. water bath and gently resuspended in the vial and transferred to the 15 mL conical tube. The 15 mL tube is centrifuged at 930 RPM (200×g) for 8 minutes at room temperature. The supernatant is aspirated and the pellet is gently resuspended in 1 mL media A. The cell suspension is filtered through a 70 um cell strainer into a new 15 mL tube. The cell strainer is rinsed with 1 mL media A and another 12 ml of media A into the 15 mL tube. The cells are mixed into an even suspension. A 20 μL aliquot is immediately removed into a 96-well plate containing 180 μL PBS+4% FBS+CD45 Alexa 700+PI to determine cell count and viability post spin. After the determination, the 15 mL tubes are centrifuged at 930 RPM (200×g) for 8 minutes at room temperature. The supernatant is aspirated and the cell pellet is gently resuspended in 4 mL PBS+4 μL Amine Aqua and incubated for 15 min in a 37° C. incubator. 10 mL RPMI+1% FBS is added to the cell suspension and the tube is inverted to mix the cells. The 15 mL tubes are centrifuged at 930 RPM (200×g) for 8 minutes at room temperature. The cells are resuspended in Media A at the desired cell concentration (1.25×10^6/mL). For samples with low numbers of cells (<18.5×10^6), the cells are resuspended in up to 15 mL media. For samples with high numbers of cells (>18.5×10^6), the volume is raised to 10 mL with media A and the desired volume is transferred to a new 15 mL tube, and the cell concentration is adjusted to 1.25×10^6 cells/ml. 1.6 mL of the above cell suspension (concentration at 1.25×10^6 cells/ml) is transferred into wells of a multi-well plate. From this plate, 80 ul is dispensed into each well of a subsequent plate. The plates are covered with a lid (Nunc) and placed in a 37° C. incubator for 2 hours to rest.
# A concentration for each stimulant that is five folds more (5×) than the final concentration is prepared using Media A as diluent. 5× stimuli are arrayed into wells of a standard 96 well v-bottom plate that correspond to the wells on the plate with cells to be stimulated.
# Adding the stimulant: The cell plate(s) are taken out of the incubator and placed in a 37° C. water bath next to the pipette apparatus. The cell plate is taken from the water bath and gently swirled to resuspend any settled cells. With pipettor, the stimulant is dispensed into the cell plate and vortexed at “7” for 5 seconds. The deep well plate is put back into the water bath.
# Adding Fixative: 200 μl of the fixative solution (final concentration at 1.6%) is dispensed into wells and then mixed on the titer plate shaker on high for 5 seconds. The plate is covered with foil sealer and incubated in a 37° C. water bath for 10 minutes. The plate is spun for 6 minutes at 2000 rpm at room temperature. The cells are aspirated using a 96 well plate aspirator (VP Scientific). The plate is vortexed to resuspend cell pellets in the residual volume. The pellet is ensured to be dispersed before the Methanol step (see cell permeabilization) or clumping will occur.
# Cell Permeabilization: Permeability agent, for example methanol, is added slowly and while the plate is vortexing. To do this, the cell plate is placed on titer plate shaker and made sure it is secure. The plate is set to shake using the highest setting. A pipetter is used to add 0.6 mls of 100% methanol to the plate wells. The plate(s) are put on ice until this step has been completed for all plates.
# [2] = system: AML BMMC leukemic blasts; experiment: SCNP modulated signaling assay, AML study No. 2 (BMMC, CR vs NR, clinical sub-groups); format: cell-based, human
# Method: Two independent sets of cryopreserved samples were analyzed sequentially. The first set consisted of 35 peripheral blood mononuclear cell (PBMC) samples derived from AML patients. The second set consisted of 134 cryopreserved bone marrow mononuclear cell (BMMC) samples derived from AML patients. These samples were the same samples used in the previous examples. Sample inclusion criteria required collection prior to initiation of induction chemotherapy, AML classification by the French-American-British (FAB) criteria as M0 through M7 (excluding M3) and availability of clinical annotations.
# In the first study, induction chemotherapy consisted of at least one cycle of standard cytarabine-based induction therapy (i.e. daunorubicin 60 mg/m^2×3 days, cytarabine 100-200 mg/m^2 continuous infusion×7 days); responses were measured after one cycle of induction therapy. In the second study, cytarabine (200 mg/m^2 to 3 g/m^2) was used in combination with an anthracycline (daunorubicin or idarubicin) or an additional anti-metabolite (e.g. fludarabine or troxacitabine), and sometimes, an experimental agent (Table 16). […] Standard clinical and laboratory criteria were used for defining complete response (CR) in both studies. […] Classified as “CRp,” these samples were included in the CR group for all primary analysis. The univariate analyses were also repeated with the CRp patients classified into the NR sample group for sensitivity analysis.
# Cyropreserved samples were thawed at […], washed and centrifuged in PBS, 10% FBS and 2 mM EDTA. The cells were re-suspended, filtered to remove debris and washed in RPMI cell culture media, 1% FBS, then stained with Live/Dead Fixable Aqua Viability Dye to distinguish non-viable cells. The cells were then re-suspended in RPMI, 1% FBS, aliquoted to 100,000 cells/condition and rested for 1-2 hours at 37° C. prior to SCNP assays. Each condition included two to five phenotypic markers for cell population gating (eg, CD45, CD33), up to three intracellular stains or up to three additional surface markers or control antibodies for an eight-color flow cytometry assay.
# Functional assays were performed as previously described. Cells were incubated with modulators (Table 18), at 37° C. for 3-15 minutes, fixed with 1.6% paraformaldehyde (final concentration) for 10 minutes at 37° C., pelleted and permeabilized with 100% ice-cold methanol and stored at −80° C.
# Data was acquired using FACS DIVA software on both LSR II and CANTO II Flow Cytometers (BD). For all analyses, dead cells and debris were excluded by forward scatter (FSC), side scatter (SSC), and Amine Aqua Viability Dye measurement. Leukemic cells were identified as cells that lacked the characteristics of mature lymphocytes (CD45^++, CD33^−) and that fit the CD45 and CD33 versus right-angle light-scatter characteristics consistent with myeloid leukemia cells.
# The median fluorescence intensity (MFI) was computed for each node from the fluorescence intensity levels for the cells in the myeloid population. The MFI values were then used to compute a variety of metrics by comparing them to baseline or background values, including the unmodulated condition, cellular autofluorescence and antibody isotype controls. The following metrics were computed: • 1. Basal MFI (“Basal”)=log2(MFIUnmodulated Stained)−log2(MFIGated Unstained (Autofluoresence)), designed to measure the basal levels of a certain protein under unmodulated conditions. • 2.
# [3] = Study No. 1 sensitivity analysis, CR samples
# [4] = Study No. 1 sensitivity analysis, NR samples incl. CRp
# [5] = Study No. 2, all patients, CR samples
# [6] = Study No. 2, all patients, CR samples, negative = down regulation
# [7] = Study No. 2, all patients, NR samples
molecule,measurement,setting,value
GM-CSF: granulocyte macrophage stimulating factor,increase in p-Akt and p-S6 levels,[1]; Staurosporine Resistant category vs other apoptosis categories,greatest increase in p-Akt and p-S6 levels
same,"Mean Value of CRs, p-Stat3 Total Phospho",[1]; [3],0.83
same,"Mean Value of NRs, p-Stat3 Total Phospho",[1]; [4],1.23
same,"Jak/Stat response (G-CSF: p-Stat3, p-Stat5; GM-CSF: p-Stat5)",[1]; all samples of the Staurosporine Resistant apoptosis category,Robust Jak/Stat responses
EPO,"Mean Value of CRs, p-Stat1 Total Phospho",[1]; [3],0.17
same,"Mean Value of CRs, p-Stat3 Total Phospho",[1]; [3],0.64
same,"Mean Value of NRs, p-Stat1 Total Phospho",[1]; [4],0.42
same,"Mean Value of NRs, p-Stat3 Total Phospho",[1]; [4],1.23
"CCCCCCCCCCCCCC(=O)O[C@@H]1[C@@H](C)[C@@]2(O)[C@@H](C=C(CO)C[C@]3(O)C(=O)C(C)=C[C@@H]23)[C@@H]2C(C)(C)[C@]12OC(C)=O [PMA, reference compound]","Mean Value of CRs, p-Erk Fold",[2]; [5],2.82
same,"Mean Value of CRs, p-CREB Total Phospho","[2]; Study No. 2, patients less than 60 years old, CR samples",3.72
same,"Mean Value of NRs, p-CREB Total Phospho","[2]; Study No. 2, patients less than 60 years old, NR samples",5.00
"IL-6: interleukin 6, cytokine modulator","Mean Value of CRs, p-Stat3 Total Phospho",[2]; [5],1.76
same,"Mean Value of CRs, p-Stat5 Fold",[2]; [5],0.13
same,"Mean Value of CRs, p-Stat1 Fold",[2]; [6],−0.01
same,"Mean Value of CRs, p-Stat3 Fold",[2]; [6],0.12
same,"Mean Value of NRs, p-Stat1 Fold",[2]; [7],0.26
same,"Mean Value of NRs, p-Stat3 Fold",[2]; [7],1.09
same,"Mean Value of NRs, p-Stat3 Total Phospho",[2]; [7],2.98
same,"Mean Value of NRs, p-Stat5 Fold",[2]; [7],0.55
same,"Mean Value of CRs, p-CREB Total Phospho",[1]; [3],1.58
same,"Mean Value of CRs, p-Stat3 Total Phospho",[1]; [3],1.08
same,"Mean Value of NRs, p-CREB Total Phospho",[1]; [4],2.44
same,"Mean Value of NRs, p-Stat3 Total Phospho",[1]; [4],1.81
"IL-10: interleukin 10, cytokine modulator","Mean Value of CRs, p-Stat5 Fold",[2]; [5],0.09
same,"Mean Value of CRs, p-Stat3 Fold",[2]; [6],0.08
same,"Mean Value of NRs, p-Stat3 Fold",[2]; [7],0.39
same,"Mean Value of CRs, p-Stat5 Fold","[2]; Study No. 2, patients with de novo AML, CR samples",0.06
same,"Mean Value of CRs, p-Stat1 Total Phospho",[1]; [3],0.17
same,"Mean Value of CRs, p-Stat3 Total Phospho",[1]; [3],0.72
same,"Mean Value of NRs, p-Stat1 Total Phospho",[1]; [4],0.47
same,"Mean Value of NRs, p-Stat3 Total Phospho",[1]; [4],1.69
IGF-1,"Mean Value of CRs, p-Plcγ2 Total Phospho",[1]; [3],1.82
same,"Mean Value of CRs, p-CREB Alexa488 Total Phospho","[1]; Study No. 1 sensitivity analysis, CR samples, Alexa488 conjugate",1.11
same,"Mean Value of CRs, p-CREB PE Total Phospho","[1]; Study No. 1 sensitivity analysis, CR samples, PE conjugate",1.42
same,"Mean Value of NRs, p-Plcγ2 Total Phospho",[1]; [4],2.76
same,"Mean Value of NRs, p-CREB Alexa488 Total Phospho","[1]; Study No. 1 sensitivity analysis, NR samples incl. CRp, Alexa488 conjugate",1.62
same,"Mean Value of NRs, p-CREB PE Total Phospho","[1]; Study No. 1 sensitivity analysis, NR samples incl. CRp, PE conjugate",2.29
B1,"Mean Value of CRs, p-CREB Total Phospho",[1]; [3],1.37
same,"Mean Value of CRs, p-Erk Total Phospho",[1]; [3],1.18
same,"Mean Value of NRs, p-CREB Total Phospho",[1]; [4],2.67
same,"Mean Value of NRs, p-Erk Total Phospho",[1]; [4],1.62
B2,"Mean Value of CRs, p-Stat3 Fold",[2]; [6],−0.02
same,"Mean Value of NRs, p-Stat3 Fold",[2]; [7],0.2
same,"Mean Value of CRs, p-Stat1 Fold",[1]; [3],0.45
same,"Mean Value of CRs, p-Stat1 Total Phospho",[1]; [3],0.67
same,"Mean Value of CRs, p-Stat3 Total Phospho",[1]; [3],0.68
same,"Mean Value of CRs, p-Stat5 Total Phospho",[1]; [3],1.62
same,"Mean Value of NRs, p-Stat1 Total Phospho",[1]; [4],1.27
same,"Mean Value of NRs, p-Stat3 Total Phospho",[1]; [4],1.3
same,"Mean Value of NRs, p-Stat5 Total Phospho",[1]; [4],2.35
same,"Mean Value of NRs, p-Stat1 Fold","[1]; Study No. 1 sensitivity analysis, NR samples incl. CRp, negative = down regulation",0.91
B3,"Mean Value of CRs, p-Akt Fold",[1]; [3],−0.16
same,"Mean Value of CRs, p-CREB Total Phospho",[1]; [3],1.26
same,"Mean Value of CRs, p-Plcγ2 Total Phospho",[1]; [3],1.79
same,"Mean Value of NRs, p-Akt Fold",[1]; [4],0.05
same,"Mean Value of NRs, p-CREB Total Phospho",[1]; [4],1.76
same,"Mean Value of NRs, p-Plcγ2 Total Phospho",[1]; [4],2.8
